Paper PMC5823688 (Molecular pharmaceutics, 2017)

Tests used:
3T3 fibroblasts = settings: MTS; after 120 h of treatment
SKOV3 cells = settings: 10 μM polymer, 72 h; FITC-annexin V, flow cytometry
[1] = system: mitochondria of granta-519 tumor cells; assay: Cytochrome C release from mitochondria of tumor cells; assay type: cell-based; settings: 10 μM peptide; in comparison to a positive 1% Triton X-100 control; Figure S4
[2] = system: caspase 3/7 activity in SKOV3 cells; settings: 0-10 μM polymer, 72 h
[3] = system: SKOV3 human ovarian cancer cells; settings: all polymer concentrations (0 to 10 μM), 96 h, MTS

poly[(DEAEMA)-co-(BMA)]-b-[(PEGMA300)-c-(MaCath-BIM)] [PolCathBIM]
BIM-mediated cell death in 3T3 fibroblasts (3T3 fibroblasts): no BIM-mediated cell death was observed | cells staining positive for annexin V (SKOV3 cells): 87%

FLAhxMRPEI-WIAQELRRIGvDEFNAY [FLAhxBIM]
cytochrome C release [1]: > 90%

poly[(DEAEMA)-co-(BMA)]-b-[(PEGMA300)-c-(MaCathScrBIM)] [PolCathScrBIM]
change in caspase 3/7 activity relative to untreated cultures [2]: no change | cells staining positive for annexin V (SKOV3 cells): 15% | cell viability [3]: greater than 90%
